The supplement of paper PMC10981050

Key:
Assay in all cases: cell viability relative to vehicle control; higher = less cytotoxic
Settings in all cases: SRSF2 genotype: SRSF2 WT
[1] = test system: MOLM14
Description: (§1)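 Isogenic SRSF2 WT and CRISPR SRSF2 P95 mutant clones of MOLM14, OCI-AML2 and MARIMO were exposed to ROCK inhibitors at 7 doses (0.037 to 29.9 µM) for 48 h. Viability was read by CellTiter-Glo luminescence and normalised to the vehicle control on each plate (%).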

[2] = test system: OCI-AML2
Description: as §1

[3] = test system: MARIMO
Description: as §1

O=C(NCc1cccc(O)c1)Nc1nc(-c2ccncc2)cs1 [RKI-1447]
cell viability [%]
Settings	0.037 µM	0.129 µM	0.369 µM	0.997 µM	3.49 µM	9.97 µM	29.9 µM
[1]	97	80.3	70.7	66.31	60.68	33	1.24
[2]	98.1	73.5	44.7	34.5	27.9	22.8	4.32
[3]	102	101	101	98.4	94.49	75.9	20.3
